Calls of active or inactive are those of the source. No cut-off for these calls is given here.
Assays:
[1] = tested on: HCT-15; experiment: Antiproliferative activity against human HCT15 cells after 48 hrs by MTT assay; assay type: functional, cell-based; details: HCT-15, 48 h
[2] = tested on: DU-145; experiment: Cell cycle arrest in human DU145 cells assessed as accumulation at subG1 phase at 100 nM after 24 hrs by propidium iodide staining based flow cytometry (reference value: 0.43%); assay type: functional
[3] = tested on: DU-145; experiment: Cell cycle arrest in human DU145 cells assessed as accumulation at G2/M phase at 100 nM after 24 hrs by propidium iodide staining based flow cytometry (reference value: 25.88%); assay type: functional
[4] = tested on: PC-3; experiment: Antiproliferative activity against human PC3 cells after 48 hrs by MTT assay; assay type: functional, cell-based; details: PC-3, 48 h
[5] = tested on: A549; experiment: Antiproliferative activity against human A549 cells after 48 hrs by MTT assay; assay type: functional, cell-based; details: A549, 48 h
[6] = tested on: DU-145; experiment: Cell cycle arrest in human DU145 cells assessed as accumulation at S phase at 400 nM after 24 hrs by propidium iodide staining based flow cytometry (reference value: 14.8%); assay type: functional
[7] = tested on: DU-145; experiment: Induction of apoptosis in human DU145 cells assessed as live cells at 200 nM after 24 hrs by Annexin V-FITC/propidium iodide staining based flow cytometry (reference value: 85.71%); assay type: functional
[8] = tested on: DU-145; experiment: Cell cycle arrest in human DU145 cells assessed as accumulation at S phase at 100 nM after 24 hrs by propidium iodide staining based flow cytometry (reference value: 14.8%); assay type: functional
[9] = tested on: DU-145; experiment: Induction of mitochondrial membrane potential loss in human DU145 cells assessed as intact membrane cell population at 200 nM after 24 hrs by JC-1 staining based flow cytometry (reference value: 77.24%); assay type: functional
[10] = organism: Sus scrofa; experiment: Inhibition of porcine brain tubulin polymerization at 5 uM measured for 1 hr by fluorescence assay relative to control
[11] = tested on: DU-145; experiment: Cell cycle arrest in human DU145 cells assessed as accumulation at G2/M phase at 400 nM after 24 hrs by propidium iodide staining based flow cytometry (reference value: 25.88%); assay type: functional
[12] = tested on: DU-145; experiment: Induction of morphological changes in human DU145 cells assessed as nuclear condensation at 100 to 200 nM after 48 hrs by DAPI staining based fluorescence microscopic method; assay type: functional, cell-based
[13] = tested on: DU-145; experiment: Induction of apoptosis in human DU145 cells assessed as early apoptotic cells at 200 nM after 24 hrs by Annexin V-FITC/propidium iodide staining based flow cytometry (reference value: 5.92%); assay type: functional
[14] = tested on: DU-145; experiment: Cell cycle arrest in human DU145 cells assessed as accumulation at subG1 phase at 200 nM after 24 hrs by propidium iodide staining based flow cytometry (reference value: 0.43%); assay type: functional
[15] = tested on: DU-145; experiment: Antimigratory activity against human DU145 cells assessed as inhibition of migration to scratch area after 24 hrs by phase contrast microscopic method; assay type: functional, cell-based
[16] = tested on: DU-145; experiment: Induction of mitochondrial membrane potential loss in human DU145 cells assessed as intact membrane cell population at 400 nM after 24 hrs by JC-1 staining based flow cytometry (reference value: 77.24%); assay type: functional
[17] = tested on: DU-145; experiment: Induction of morphological changes in human DU145 cells assessed as nuclear fragmentation at 100 to 200 nM after 48 hrs by DAPI staining based fluorescence microscopic method; assay type: functional, cell-based
[18] = tested on: DU-145; experiment: Induction of mitochondrial membrane potential loss in human DU145 cells assessed as depolarized cell population at 400 nM after 24 hrs by JC-1 staining based flow cytometry (reference value: 22.28%); assay type: functional
[19] = tested on: DU-145; experiment: Cell cycle arrest in human DU145 cells assessed as accumulation at G0/G1 phase at 100 nM after 24 hrs by propidium iodide staining based flow cytometry (reference value: 63.77%); assay type: functional
[20] = tested on: DU-145; experiment: Cell cycle arrest in human DU145 cells assessed as accumulation at G0/G1 phase at 400 nM after 24 hrs by propidium iodide staining based flow cytometry (reference value: 63.77%); assay type: functional
[21] = tested on: DU-145; experiment: Induction of morphological changes in human DU145 cells assessed as apoptotic body formation after 48 hrs by acridine orange/ethidium bromide staining based fluorescence microscopic method; assay type: functional, cell-based
[22] = tested on: RWPE-1; experiment: Cytotoxicity against human RWPE1 cells assessed as reduction in cell viability after 48 hrs by MTT assay; assay type: cell-based; details: RWPE-1, 48 h
[23] = tested on: DU-145; experiment: Induction of morphological changes in human DU145 cells assessed as membrane blebbing after 48 hrs by acridine orange/ethidium bromide staining based fluorescence microscopic method; assay type: functional, cell-based
[24] = tested on: DU-145; experiment: Induction of intracellular mitochondrial superoxide generation in human DU145 cells after 48 hrs by MitoSOX staining based fluorescence microscopic method; assay type: functional, cell-based
[25] = tested on: DU-145; experiment: Cell cycle arrest in human DU145 cells assessed as accumulation at S phase at 200 nM after 24 hrs by propidium iodide staining based flow cytometry (reference value: 14.8%); assay type: functional
[26] = tested on: DU-145; experiment: Antimigratory activity against human DU145 cells assessed as inhibition of migration to scratch area at 400 nM after 24 hrs by phase contrast microscopic method relative to control; assay type: functional; details: DU-145, 24 h
[27] = tested on: DU-145; experiment: Induction of mitochondrial membrane potential loss in human DU145 cells after 24 hrs by JC-1 staining based flow cytometry; assay type: functional, cell-based
[28] = tested on: DU-145; experiment: Induction of apoptosis in human DU145 cells assessed as live cells at 400 nM after 24 hrs by Annexin V-FITC/propidium iodide staining based flow cytometry (reference value: 85.71%); assay type: functional
[29] = tested on: DU-145; experiment: Induction of apoptosis in human DU145 cells assessed as late apoptotic cells at 200 nM after 24 hrs by Annexin V-FITC/propidium iodide staining based flow cytometry (reference value: 6.55%); assay type: functional
[30] = tested on: DU-145; experiment: Cell cycle arrest in human DU145 cells assessed as accumulation at G2/M phase after 24 hrs by propidium iodide staining based flow cytometry; assay type: functional
[31] = tested on: DU-145; experiment: Antimigratory activity against human DU145 cells assessed as inhibition of migration to scratch area at 200 nM after 24 hrs by phase contrast microscopic method relative to control; assay type: functional; details: DU-145, 24 h
[32] = tested on: DU-145; experiment: Induction of apoptosis in human DU145 cells assessed as late apoptotic cells at 400 nM after 24 hrs by Annexin V-FITC/propidium iodide staining based flow cytometry (reference value: 6.55%); assay type: functional
[33] = tested on: DU-145; experiment: Cell cycle arrest in human DU145 cells assessed as accumulation at G0/G1 phase at 200 nM after 24 hrs by propidium iodide staining based flow cytometry (reference value: 63.77%); assay type: functional
[34] = tested on: DU-145; experiment: Induction of apoptosis in human DU145 cells assessed as necrotic cells at 200 nM after 24 hrs by Annexin V-FITC/propidium iodide staining based flow cytometry (reference value: 1.82%); assay type: functional
[35] = tested on: DU-145; experiment: Cell cycle arrest in human DU145 cells assessed as accumulation at G2/M phase at 200 nM after 24 hrs by propidium iodide staining based flow cytometry (reference value: 25.88%); assay type: functional
[36] = tested on: DU-145; experiment: Cell cycle arrest in human DU145 cells assessed as accumulation at subG1 phase at 400 nM after 24 hrs by propidium iodide staining based flow cytometry (reference value: 0.43%); assay type: functional
[37] = tested on: DU-145; experiment: Antiproliferative activity against human DU145 cells after 48 hrs by MTT assay; assay type: functional, cell-based; details: DU-145, 48 h
[38] = tested on: DU-145; experiment: Induction of apoptosis in human DU145 cells assessed as early apoptotic cells at 400 nM after 24 hrs by Annexin V-FITC/propidium iodide staining based flow cytometry (reference value: 5.92%); assay type: functional
[39] = tested on: DU-145; experiment: Induction of apoptosis in human DU145 cells assessed as necrotic cells at 400 nM after 24 hrs by Annexin V-FITC/propidium iodide staining based flow cytometry (reference value: 1.82%); assay type: functional
[40] = tested on: DU-145; experiment: Induction of morphological changes in human DU145 cells assessed as cell shrinkage after 48 hrs by acridine orange/ethidium bromide staining based fluorescence microscopic method; assay type: functional
[41] = tested on: DU-145; experiment: Antimigratory activity against human DU145 cells assessed as inhibition of migration to scratch area at 100 nM after 24 hrs by phase contrast microscopic method relative to control; assay type: functional; details: DU-145, 24 h
[42] = tested on: DU-145; experiment: Induction of apoptosis in human DU145 cells after 24 hrs by Annexin V-FITC/propidium iodide staining based flow cytometry; assay type: functional, cell-based
[43] = tested on: DU-145; experiment: Induction of mitochondrial membrane potential loss in human DU145 cells assessed as depolarized cell population at 200 nM after 24 hrs by JC-1 staining based flow cytometry (reference value: 22.28%); assay type: functional

`COc1ccc2sc(NC(=O)Cn3cc(C(=O)C(=O)Nc4ccccc4)c4ccccc43)nc2c1` showed an IC50 [1] of 0.18 µM, an Activity [2] of 17.37% and an Activity [3] of 30.15%. The IC50 [4] was 0.361 µM, the IC50 [5] was 2.1 µM and the Activity [6] was 5.51%. It also gave an Activity [7] of 84.72%, an Activity [8] of 5.8% and an Activity [9] of 42.39%. The inhibition [10] was 68.5%, the Activity [11] was 50.9% and the Activity [12] was “Active”. For the same molecule, the Activity [13] was 5.89%, the Activity [14] was 5.88% and the inhibition [15] was “Dose-dependent effect”. The Activity [16] was 34.21%, the Activity [17] was “Active” and the Activity [18] was 64.65%. The Activity [19] was 47.69%, the Activity [20] was 16.32% and the Activity [21] was “Dose-dependent effect”. For the same molecule, the IC50 [22] was 710 nM, the Activity [23] was “Dose-dependent effect” and the Activity [24] was “Dose-dependent effect”. For the same molecule, the Activity [25] was 8.26%, the inhibition at 0.4 µM [26] was 34.8% and the Activity [27] was “Dose-dependent effect”. For the same molecule, the Activity [28] was 45.47%, the Activity [29] was 5.81% and the Activity [30] was “Dose-dependent effect”. It also gave an inhibition at 0.2 µM [31] of 44%, an Activity [32] of 33.63% and an Activity [33] of 51.89%. The Activity [34] was 3.58%, the Activity [35] was 34.07% and the Activity [36] was 26.89%. It also gave an IC50 [37] of 0.093 µM, an Activity [38] of 16.84% and an Activity [39] of 4.06%. For the same molecule, the Activity [40] was “Dose-dependent effect”, the inhibition at 0.1 µM [41] was 74.8% and the Activity [42] was “Dose-dependent effect”. For the same molecule, the Activity [43] was 57.05%.

For `O=C(Cn1cc(C(=O)C(=O)NC2CC2)c2ccccc21)Nc1nc(-c2ccccc2)cs1`, the IC50 [4] was greater than 50 µM, the IC50 [5] was 41.8 µM and the IC50 [37] was greater than 50 µM.

`O=C(Cn1cc(C(=O)C(=O)N2CCCCC2)c2ccccc21)Nc1nccs1` gave an IC50 [1] greater than 50 µM, an IC50 [4] greater than 50 µM and an IC50 [5] greater than 50 µM. It also gave an IC50 [37] greater than 50 µM.

With `COc1ccc2sc(NC(=O)Cn3cc(C(=O)C(=O)NC4CC4)c4ccccc43)nc2c1` the IC50 [1] was greater than 50 µM, the IC50 [4] was 9.4 µM and the IC50 [5] was greater than 50 µM. The IC50 [37] was 5.5 µM.

Work on `O=C(Cn1cc(C(=O)C(=O)Nc2ccccc2)c2ccccc21)Nc1nccs1` yielded an IC50 [1] greater than 50 µM, an IC50 [4] greater than 50 µM and an IC50 [5] of 20.9 µM. It also gave an inhibition [10] of 23.5% and an IC50 [37] of 5.15 µM.

With `O=C(Cn1cc(C(=O)C(=O)Nc2ccccc2)c2ccccc21)Nc1nc(-c2ccccc2)cs1` the IC50 [1] was greater than 50 µM, the IC50 [4] was greater than 50 µM and the IC50 [5] was greater than 50 µM. For the same molecule, the IC50 [37] was 34.3 µM.

`O=C(Cn1cc(C(=O)C(=O)N2CCCCC2)c2ccccc21)Nc1nc(-c2ccccc2)cs1` gave an IC50 [1] greater than 50 µM, an IC50 [4] greater than 50 µM and an IC50 [5] greater than 50 µM. It also gave an IC50 [37] of 25.4 µM.

With `CCOC(=O)c1nc(NC(=O)Cn2cc(C(=O)C(=O)N3CCCCC3)c3ccccc32)sc1C` the IC50 [4] was 8.2 µM, the IC50 [5] was greater than 50 µM and the IC50 [37] was 3.21 µM.

In the case of `O=C(Cn1cc(C(=O)C(=O)Nc2ccccc2)c2cc(Br)ccc21)Nc1nccs1`, the IC50 [1] is reported as greater than 50 µM, the IC50 [4] is reported as greater than 50 µM and the IC50 [5] is reported as 43.7 µM. It also gave an IC50 [37] of 25.5 µM.

With `O=C(Cn1cc(C(=O)C(=O)NC2CC2)c2ccccc21)Nc1nccs1` the IC50 [4] was greater than 50 µM, the IC50 [5] was greater than 50 µM and the IC50 [37] was greater than 50 µM.

`COc1ccc2sc(NC(=O)Cn3cc(C(=O)C(=O)Nc4ccccc4)c4cc(Br)ccc43)nc2c1` gave an IC50 [1] of 12.5 µM, an IC50 [4] of 13.6 µM and an IC50 [5] greater than 50 µM. For the same molecule, the inhibition [10] was 23.3% and the IC50 [37] was 5.6 µM.
